Measurements taken from the NIST ThermoML archive (doi:10.1016/j.fluid.2015.07.030).

Test: refractive index (other wavelength) (dimensionless); xn = mol fraction of the nth substance listed
Settings: 95.99 kPa, Liquid, Standard Abbe refractometry

OCCOCCOCCO [triethylene glycol] + O
Settings | refractive index
298.15 K, Wavelength=644 nm, x2 = 0.9708 | 1.35412
298.15 K, Wavelength=644 nm, x2 = 0.979 | 1.34905
298.15 K, Wavelength=644 nm, x2 = 0.9867 | 1.34308
298.15 K, Wavelength=644 nm, x2 = 0.9936 | 1.3369
298.15 K, Wavelength=706.5 nm, x2 = 0 | 1.45075
298.15 K, Wavelength=706.5 nm, x2 = 0.1056 | 1.44937
298.15 K, Wavelength=706.5 nm, x2 = 0.2069 | 1.44768
298.15 K, Wavelength=706.5 nm, x2 = 0.3104 | 1.44445
298.15 K, Wavelength=706.5 nm, x2 = 0.4844 | 1.44065
298.15 K, Wavelength=706.5 nm, x2 = 0.5016 | 1.43966
298.15 K, Wavelength=706.5 nm, x2 = 0.5952 | 1.43307
298.15 K, Wavelength=706.5 nm, x2 = 0.6016 | 1.4331
298.15 K, Wavelength=706.5 nm, x2 = 0.6788 | 1.42668
298.15 K, Wavelength=706.5 nm, x2 = 0.7835 | 1.41733
298.15 K, Wavelength=706.5 nm, x2 = 0.8184 | 1.41213
298.15 K, Wavelength=706.5 nm, x2 = 0.8473 | 1.40596
298.15 K, Wavelength=706.5 nm, x2 = 0.8719 | 1.39912
298.15 K, Wavelength=706.5 nm, x2 = 0.8926 | 1.39147
298.15 K, Wavelength=706.5 nm, x2 = 0.9106 | 1.38588
298.15 K, Wavelength=706.5 nm, x2 = 0.9254 | 1.37553
298.15 K, Wavelength=706.5 nm, x2 = 0.9303 | 1.37697
298.15 K, Wavelength=706.5 nm, x2 = 0.9391 | 1.3729
298.15 K, Wavelength=706.5 nm, x2 = 0.951 | 1.3662
298.15 K, Wavelength=706.5 nm, x2 = 0.9599 | 1.36035
298.15 K, Wavelength=706.5 nm, x2 = 0.9708 | 1.35254
298.15 K, Wavelength=706.5 nm, x2 = 0.979 | 1.34751
298.15 K, Wavelength=706.5 nm, x2 = 0.9867 | 1.34153
298.15 K, Wavelength=706.5 nm, x2 = 0.9936 | 1.3354
303.15 K, Wavelength=404.7 nm, x2 = 0 | 1.4657
303.15 K, Wavelength=404.7 nm, x2 = 0.1056 | 1.4643
303.15 K, Wavelength=404.7 nm, x2 = 0.2069 | 1.46262
303.15 K, Wavelength=404.7 nm, x2 = 0.3104 | 1.45889
303.15 K, Wavelength=404.7 nm, x2 = 0.4844 | 1.45533
303.15 K, Wavelength=404.7 nm, x2 = 0.5016 | 1.45432
303.15 K, Wavelength=404.7 nm, x2 = 0.5952 | 1.44749
303.15 K, Wavelength=404.7 nm, x2 = 0.6016 | 1.44759
303.15 K, Wavelength=404.7 nm, x2 = 0.6788 | 1.44091
303.15 K, Wavelength=404.7 nm, x2 = 0.7835 | 1.4314
303.15 K, Wavelength=404.7 nm, x2 = 0.8184 | 1.42604
303.15 K, Wavelength=404.7 nm, x2 = 0.8473 | 1.41954
303.15 K, Wavelength=404.7 nm, x2 = 0.8719 | 1.41258
303.15 K, Wavelength=404.7 nm, x2 = 0.8926 | 1.4048
303.15 K, Wavelength=404.7 nm, x2 = 0.9106 | 1.39915
303.15 K, Wavelength=404.7 nm, x2 = 0.9254 | 1.38867
303.15 K, Wavelength=404.7 nm, x2 = 0.9303 | 1.38901
303.15 K, Wavelength=404.7 nm, x2 = 0.9391 | 1.38606
303.15 K, Wavelength=404.7 nm, x2 = 0.951 | 1.37929
303.15 K, Wavelength=404.7 nm, x2 = 0.9599 | 1.37327
303.15 K, Wavelength=404.7 nm, x2 = 0.9708 | 1.3651
303.15 K, Wavelength=404.7 nm, x2 = 0.979 | 1.36001
303.15 K, Wavelength=404.7 nm, x2 = 0.9867 | 1.3539
303.15 K, Wavelength=404.7 nm, x2 = 0.9936 | 1.3476
303.15 K, Wavelength=435.8 nm, x2 = 0 | 1.46213
303.15 K, Wavelength=435.8 nm, x2 = 0.1056 | 1.46075
303.15 K, Wavelength=435.8 nm, x2 = 0.2069 | 1.4591
303.15 K, Wavelength=435.8 nm, x2 = 0.3104 | 1.45541
303.15 K, Wavelength=435.8 nm, x2 = 0.4844 | 1.4519
303.15 K, Wavelength=435.8 nm, x2 = 0.5016 | 1.4509
303.15 K, Wavelength=435.8 nm, x2 = 0.5952 | 1.44412
303.15 K, Wavelength=435.8 nm, x2 = 0.6016 | 1.44421
303.15 K, Wavelength=435.8 nm, x2 = 0.6788 | 1.43757
303.15 K, Wavelength=435.8 nm, x2 = 0.7835 | 1.4281
303.15 K, Wavelength=435.8 nm, x2 = 0.8184 | 1.4228
303.15 K, Wavelength=435.8 nm, x2 = 0.8473 | 1.41636
303.15 K, Wavelength=435.8 nm, x2 = 0.8719 | 1.40944
303.15 K, Wavelength=435.8 nm, x2 = 0.8926 | 1.40173
303.15 K, Wavelength=435.8 nm, x2 = 0.9106 | 1.39612
303.15 K, Wavelength=435.8 nm, x2 = 0.9254 | 1.38572
303.15 K, Wavelength=435.8 nm, x2 = 0.9303 | 1.38707
303.15 K, Wavelength=435.8 nm, x2 = 0.9391 | 1.38312
303.15 K, Wavelength=435.8 nm, x2 = 0.951 | 1.37641
303.15 K, Wavelength=435.8 nm, x2 = 0.9599 | 1.37045
303.15 K, Wavelength=435.8 nm, x2 = 0.9708 | 1.36235
303.15 K, Wavelength=435.8 nm, x2 = 0.979 | 1.3573
303.15 K, Wavelength=435.8 nm, x2 = 0.9867 | 1.35126
303.15 K, Wavelength=435.8 nm, x2 = 0.9936 | 1.34502
303.15 K, Wavelength=486.1 nm, x2 = 0 | 1.45796
303.15 K, Wavelength=486.1 nm, x2 = 0.1056 | 1.4566
303.15 K, Wavelength=486.1 nm, x2 = 0.2069 | 1.45496
303.15 K, Wavelength=486.1 nm, x2 = 0.3104 | 1.45129
303.15 K, Wavelength=486.1 nm, x2 = 0.4844 | 1.4478
303.15 K, Wavelength=486.1 nm, x2 = 0.5016 | 1.44681
303.15 K, Wavelength=486.1 nm, x2 = 0.5952 | 1.44014
303.15 K, Wavelength=486.1 nm, x2 = 0.6016 | 1.44025
303.15 K, Wavelength=486.1 nm, x2 = 0.6788 | 1.4337
303.15 K, Wavelength=486.1 nm, x2 = 0.7835 | 1.42435
303.15 K, Wavelength=486.1 nm, x2 = 0.8184 | 1.4191
303.15 K, Wavelength=486.1 nm, x2 = 0.8473 | 1.41271
303.15 K, Wavelength=486.1 nm, x2 = 0.8719 | 1.40585
303.15 K, Wavelength=486.1 nm, x2 = 0.8926 | 1.39821
303.15 K, Wavelength=486.1 nm, x2 = 0.9106 | 1.39265
303.15 K, Wavelength=486.1 nm, x2 = 0.9254 | 1.38237
303.15 K, Wavelength=486.1 nm, x2 = 0.9303 | 1.38371
303.15 K, Wavelength=486.1 nm, x2 = 0.9391 | 1.37974
303.15 K, Wavelength=486.1 nm, x2 = 0.951 | 1.37311
303.15 K, Wavelength=486.1 nm, x2 = 0.9599 | 1.36721
303.15 K, Wavelength=486.1 nm, x2 = 0.9708 | 1.3592
303.15 K, Wavelength=486.1 nm, x2 = 0.979 | 1.35419
303.15 K, Wavelength=486.1 nm, x2 = 0.9867 | 1.34816
303.15 K, Wavelength=486.1 nm, x2 = 0.9936 | 1.34197
303.15 K, Wavelength=546.1 nm, x2 = 0 | 1.45455
303.15 K, Wavelength=546.1 nm, x2 = 0.1056 | 1.45317
303.15 K, Wavelength=546.1 nm, x2 = 0.2069 | 1.45155
303.15 K, Wavelength=546.1 nm, x2 = 0.3104 | 1.4479
303.15 K, Wavelength=546.1 nm, x2 = 0.4844 | 1.44445
303.15 K, Wavelength=546.1 nm, x2 = 0.5016 | 1.44347
303.15 K, Wavelength=546.1 nm, x2 = 0.5952 | 1.43687
303.15 K, Wavelength=546.1 nm, x2 = 0.6016 | 1.43697
303.15 K, Wavelength=546.1 nm, x2 = 0.6788 | 1.43047
303.15 K, Wavelength=546.1 nm, x2 = 0.7835 | 1.42118
303.15 K, Wavelength=546.1 nm, x2 = 0.8184 | 1.41598
303.15 K, Wavelength=546.1 nm, x2 = 0.8473 | 1.40964
303.15 K, Wavelength=546.1 nm, x2 = 0.8719 | 1.40283
303.15 K, Wavelength=546.1 nm, x2 = 0.8926 | 1.39527
303.15 K, Wavelength=546.1 nm, x2 = 0.9106 | 1.38973
303.15 K, Wavelength=546.1 nm, x2 = 0.9254 | 1.37951
303.15 K, Wavelength=546.1 nm, x2 = 0.9303 | 1.38085
303.15 K, Wavelength=546.1 nm, x2 = 0.9391 | 1.37691
303.15 K, Wavelength=546.1 nm, x2 = 0.951 | 1.3703
303.15 K, Wavelength=546.1 nm, x2 = 0.9599 | 1.36443
303.15 K, Wavelength=546.1 nm, x2 = 0.9708 | 1.35648
303.15 K, Wavelength=546.1 nm, x2 = 0.979 | 1.3515
303.15 K, Wavelength=546.1 nm, x2 = 0.9867 | 1.3455
303.15 K, Wavelength=546.1 nm, x2 = 0.9936 | 1.33934
303.15 K, Wavelength=587.6 nm, x2 = 0 | 1.45273
303.15 K, Wavelength=587.6 nm, x2 = 0.1056 | 1.45138
303.15 K, Wavelength=587.6 nm, x2 = 0.2069 | 1.44975
303.15 K, Wavelength=587.6 nm, x2 = 0.3104 | 1.44612
303.15 K, Wavelength=587.6 nm, x2 = 0.4844 | 1.44268
303.15 K, Wavelength=587.6 nm, x2 = 0.5016 | 1.4417
303.15 K, Wavelength=587.6 nm, x2 = 0.5952 | 1.43513
303.15 K, Wavelength=587.6 nm, x2 = 0.6016 | 1.43525
303.15 K, Wavelength=587.6 nm, x2 = 0.6788 | 1.42877
303.15 K, Wavelength=587.6 nm, x2 = 0.7835 | 1.41951
303.15 K, Wavelength=587.6 nm, x2 = 0.8184 | 1.41434
